Counter-ions that a name gives are not always drawn.
Legend:
5-lipoxygenase [1] = molecular target: T1, 5-lipoxygenase (Cavia porcellus, UniProt A0A286X958); experiment: Enzyme assay using the 105,000 x g supernate of sonicated polymorphonuclear leukocytes: production of 5-HETE, 5,12-diHETE and LTB; type: biochemical; conditions: supernate enzyme of guinea pig polymorphonuclear leukocytes, 5 min at 30°C, 1 mM calcium chloride, read-out: concentration for a 50% inhibition of 5-lipoxygenase, i.e. IC50
T1 sequence (A0A286X958 1-674): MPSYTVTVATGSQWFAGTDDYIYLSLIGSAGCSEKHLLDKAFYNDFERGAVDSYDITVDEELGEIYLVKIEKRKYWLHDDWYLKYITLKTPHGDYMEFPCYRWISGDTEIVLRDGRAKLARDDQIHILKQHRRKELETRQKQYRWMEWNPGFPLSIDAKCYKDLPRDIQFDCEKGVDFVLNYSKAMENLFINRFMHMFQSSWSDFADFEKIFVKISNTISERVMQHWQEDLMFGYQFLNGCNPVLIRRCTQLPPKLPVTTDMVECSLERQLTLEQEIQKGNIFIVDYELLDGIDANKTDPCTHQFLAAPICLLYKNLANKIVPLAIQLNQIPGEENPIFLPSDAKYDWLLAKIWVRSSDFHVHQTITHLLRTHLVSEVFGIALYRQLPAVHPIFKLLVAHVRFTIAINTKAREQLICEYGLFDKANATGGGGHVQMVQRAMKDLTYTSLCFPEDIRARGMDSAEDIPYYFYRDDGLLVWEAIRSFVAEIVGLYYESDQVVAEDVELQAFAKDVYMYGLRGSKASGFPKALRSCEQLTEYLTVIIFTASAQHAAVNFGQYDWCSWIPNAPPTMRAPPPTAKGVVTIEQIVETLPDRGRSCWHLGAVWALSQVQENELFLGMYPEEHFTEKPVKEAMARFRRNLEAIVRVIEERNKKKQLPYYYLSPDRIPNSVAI
Method: Further, in another assay system, the inhibitory activity of compounds of the present invention on 5-lipoxygenase only was also evaluated by using an enzyme prepared from polymorphonuclear leukocytes of guinea pig. Guinea pig was treated by casein and harvested polymcrphonuclear leukocytes from cavity were sonicated, followed by the centrifugation at 105,000 x g. The supernate was used as an enzyme throughout this work. The supernate (100 - 500 µg of protein) was incubated for 5 minutes at 30°C with [^14C] arachidonic acid and 1 mM calcium chloride in the presence or in the absence of test compound. The reaction was terminated by the addition of ether.

5-lipoxygenase [2] = molecular target: T1, 5-lipoxygenase; experiment: Screening assay using polymorphonuclear leukocytes: production of 5-HETE from [14C] arachidonic acid; type: cell-based; conditions: intact polymorphonuclear leukocytes from guinea pig, 5 min preincubation and 5 min incubation at 37°C, read-out: concentration for 50% inhibition on 5-lipoxygenase
Method: The experiments for screening using polymorphonuclear leukocytes were carried out as follows: The reaction mixture (0.1 ml) containing 5 µmole of potassium phosphate at pE 7.4, 0.1 µmole of calcium chloride, polymorphonuclear leukocytes prepared from guinea pigs (4 x 10^7 cells) and test compound, was preincubated for 5 minutes at 37°C. The reaction was started by the addition of [^14C) arachidonic acid (2.2 x 10^5 dpm, 1.8 nmole), followed by the incubation at 37°C for 5 minutes. The reaction was terminated by the addition of 0.3 ml of a mixture of ether/methanol/lM citric acid (30/4/1). The organic phase (20 µl) was applied to silica gel plate. Thin layer chromatography was performed to separate each product with solvent system of ether/petroleum ether/acetic acid (85/15/0.1).
Activity of 5-lipoxygenase and cyclooxygenase were calculated from the measurements of the production of 5-HETE, and 12L-hydroxy-5,8,lC-heptatrienoic acid (i.e. HHT) or thromboxane B2 (i.e. TXB2), respectively [it has been known that HHT and TXB2 are the last products of the system concerning cyclooxygenase in the arachidonate cascade]. The concentrations for 50% inhibitions on 5-lipoxygenase and on cyclooxygenase were evaluated by using the concentration of compounds of the present invention required 50% inhibitions on the productions of 5-HETE, and HHT or TXB2, respectively.

How did the IC50 (5-lipoxygenase [1]) turn out when `Nc1c(O)c(Cl)cc(C(=O)c2ccc(Cl)cc2)c1O` [2-Amino-4-chloro-6-(4-chlorobenzoyl)resorcinol hydrochloride] was run?
Its IC50 is 2630 nM.

`COC(c1ccc(Cl)cc1)c1cc(Cl)c(O)c(N)c1O` (centres unmarked) [2-Amino-4-chloro-6-(a-methoxy-4-chlorobenzyl)resorcinol hydrochloride] was tested. Which IC50 (5-lipoxygenase [1]) did it give?
Its IC50 is 2000 nM.

For `Nc1c(O)ccc(C(=O)c2ccccc2)c1O` [2-Amino-6-benzoylresorcinol hydrochloride], which IC50 (5-lipoxygenase [2]) is on record?
Its IC50 is 300 nM.

And the IC50 (5-lipoxygenase [1])?
The IC50 was 400 nM.

For `Nc1cc(C(=O)c2ccccc2)c(O)cc1O` [4-Amino-6-benzoylresorcinol hydrochloride], which IC50 (5-lipoxygenase [1]) is on record?
Its IC50 is 6670 nM.

Reference: patent publication EP0079141A1, “Aminoresorcinol derivatives” (ONO PHARMACEUTICAL CO., LTD., priority 1981, dated 1983)
